Consider one compound from the supplement of paper PMC11061612.

Assay [1] deals with D-283MED (Other Solid Carcinomas). Briefly: Bliss excess, mean over the matrix (fraction); higher = more synergy. The method in brief: (§1)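 After 24 hours at 37°C and 5% CO2 in 1536-well plates, cells in DMEM/F12 or RPMI plus 10% FBS received two-drug dose matrices for 72 hours. Viability came from CellTiter-Glo 2.0 luminescence and was scaled as inhibition, anchored at 0 by vehicle wells and at 1 by blank wells. Combination Emax is taken as the second-highest inhibition in the matrix, and Bliss excess as the observed combination effect less EA + EB − EA·EB, with EA and EB the single-agent effects.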

Assay [2] deals with EFM-192A (Breast Carcinoma). The assay is described as above. The method in brief: as §1
The subject of assay [3] is EKVX (Non-Small Cell Lung Carcinoma). Described as above. The method in brief:
as §1

A further assay has as its system EW-22 (Ewing's Sarcoma). The description is as above. The method in brief: as §1
Assay [4] relates to FU-OV-1 (Ovarian Carcinoma). The description is as above. The procedure, abridged: as §1
Another assay has as its system H4 (Low Grade Glioma). The description is as above. The procedure, abridged:
as §1

Assay [5] relates to HCT-116 (Colorectal Carcinoma). Described as above. The procedure, abridged: as §1
The next assay has as its system MCF7 (Breast Carcinoma). The assay is described as above. The procedure, abridged:
as §1

Assay [6] has as its system MES-SA (Other Solid Carcinomas). The assay is described as above. The procedure, abridged: as §1
For assay [7], the system named is NOMO-1 (Acute Myeloid Leukemia). Described as above. The method in brief:
as §1

Assay [8] concerns SK-UT-1 (Other Solid Carcinomas). Described as above. The procedure, abridged: as §1
For assay [9], the system named is SW948 (Colorectal Carcinoma). Described as above. The method in brief: as §1
The subject of assay [10] is YT (Other Blood Carcinomas). The description is as above. The procedure, abridged:
as §1

The subject of assay [11] is FU-OV-1 (Ovarian Carcinoma). Briefly: combination Emax (second highest fraction inhibited in the dose matrix, 72 h); higher = more inhibition; extreme values may be limits of the assay. The method in brief: as §1
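For Bliss excess, mean over the matrix in this document: after 72 h of two-drug dosing.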

In the case of `CC1(C)CCC(CN2CCN(c3ccc(C(=O)NS(=O)(=O)c4ccc(NCC5CCOCC5)c([N+](=O)[O-])c4)c(Oc4cnc5[nH]ccc5c4)c3)CC2)=C(c2ccc(Cl)cc2)C1` [Venetoclax] + Cn1cnc2c(F)c(Nc3ccc(Br)cc3Cl)c(C(=O)NOCCO)cc21 [Selumetinib] (first compound max 1 µM, 7x7, partner max 3 µM), the Bliss excess in assay [1] is 0.009; in [2], -0.0245; in [3] it was -0.0732; with EW-22 (Ewing's Sarcoma), -0.0233; in [4] it was -0.0929; with H4 (Low Grade Glioma) it was 0.006. The Bliss excess was -0.0255 in [5]; -0.058 with MCF7 (Breast Carcinoma); -0.0129 in assay [6]; 0.0999 in [7]; 0.0043 in assay [8]; -0.0505 in assay [9]. In assay [10], the Bliss excess turned out to be 0.0297. In addition, the “combination Emax” value in assay [11] was determined as 0.445.
